PMC8907193, “The YΦ motif defines the structure-activity relationships of human 20S proteasome activators” (Nature Communications, 2022)
Square brackets hold non-standard residues; d marks the D form. Ends that are not written are not given here. Peptide text beside a SMILES is read from it. Cha = N[C@@H](CC1CCCCC1)C(=O)O

Columns and labels:
[1] = tested on: T1, human 20S proteasome (h20S); experiment: h20S stimulation, hydrolysis of suc-LLVY-amc (chymotryptic-like activity); assay type: biochemical
T1 construct: purchased Proteasome Center
Method: Human 20S (h20S) (final concentration of 4 nM) was incubated in the presence or absence of activators (peptides, 0.2–600 μM; MBP 0.2–400 μM; PA26, 0.04–3500 nM) at ambient temperature for 5 min. Substrate (suc-LLVY-amc, 10 μM; boc-LRR-amc, 20 μM; or FAM-LFP, 100 nM) was added immediately before reading. Fluorescence intensity of suc-LLVY-amc and boc-LRR-amc (excitation, 355 nm; emission, 440 nm; cutoff 435 nm) or FAM-LFP (excitation, 490 nm; emission, 520 nm; cutoff, 515 nm) were monitored at 30 to 60 s intervals for 30 min at 25 °C using a Spectramax M5 microplate reader (Molecular Devices; SoftMax Pro 6.5.1). The hydrolysis rate was calculated from the slope of the curve between 100 and 500 s (500 and 1000 s for boc-LRR-amc) in arbitrary units (RFU per s).
Data were processed and fit in GraphPad Prism 8.1.2. The baseline hydrolysis was normalized to the total mean activity for the lowest concentration of every activator assayed in a given plate and the maximal hydrolysis was normalized as reported. The normalized activity was plotted relative to log10(activator). Data was fit to the model for log(agonist) versus response (variable slope). In Eq. (1), X = log[activator, μM] except for PA26-based activators, which are in nanomolar.1 Y=Bottom+(Top−Bottom)/1+10^((logEC50−X)×Hillslope)

[2] = Visual inspection of 10 mM DMSO stocks (solubility); assay type: physicochemical; conditions: 10 mM in DMSO (Suppl Fig 1e)

| improvement of potency relative to Opt5^YY ([1]; ratio of EC50) | stimulation of h20S, result in words ([1]; suc-LLVY-amc turnover) | solubility of DMSO stock, visual [2] | Compound |
| --- | --- | --- | --- |
| ~ 2 fold | completely inactivated | – | CC(C)C[C@H](NC(=O)[C@@H](N)CC(N)=O)C(=O)N[C@@H](CO)C(=O)N[C@@H](Cc1ccc(O)cc1)C(=O)N[C@@H](CC1CCCCC1)C(=O)N[C@H](C(=O)O)[C@@H](C)O [Opt5^Y4] (H-NLSY[Cha]T-OH; N-terminus and C-terminus assumed) |
| – | – | insoluble | ANLQYFA [hRpt5-YP2F] |
